Assay results: patent US20210238225A1, “PEPTIDOMIMETIC INHIBITORS OF THE PEPTIDYL-PROLYL CIS/TRANS ISOMERASE (PIN1)” (DANA-FARBER CANCER INSTITUTE, INC., priority 2018, published 2021)
“Also recorded” adds a separate entry of the source. Where two headings read alike, the source gives them in different places. Non-standard residues stand in square brackets, D forms with d. Residues, ends and D or L forms follow the SMILES beside them. *: point of attachment. Biotinyl(3aR,4R,6aS) = O=C1N[C@@H]2[C@@H](CS[C@@H]2CCCCC(=O)*)N1; 2Nal = N[C@@H](Cc1ccc2ccccc2c1)C(=O)O; X2 = C[C@H]1NC(=O)N[C@H]1CCCCCC(=O)*; Bta = N[C@@H](Cc1csc2ccccc12)C(=O)O; NH(4-Me-benzyl) = Cc1ccc(CN*)cc1; NMeF = CN[C@@H](Cc1ccccc1)C(=O)O; Cit = NC(=O)NCCC[C@H](N)C(=O)O; Pip = O=C(O)[C@@H]1CCCCN1; βNA = c1ccc2cc(N*)ccc2c1; Fluoroacetyl = O=C(CF)*; Acryloyl = C=CC(=O)*; X3 = C=CS(=O)(=O)*; X4 = CN(c1ccccc1)*; ClAc = O=C(CCl)*

Assays:
Pin1 = Pin1 (Homo sapiens, UniProt Q13526); assay: Lysate target engagement (pull down with biotinylated probes; competition assay); assay type: binding; design: endogenous in cells; host or cells: MDA-MB-231; settings: for Lysate Target Engagement?: TNBC-MDA-MB-231 lysate, biotin/dtb probes: pull down, others: competition, concentration under E5; for Lysate Target Engagement? concentration stated for the engagement or pull down: read with the E4 line of the same compound (complete, partial, probe pull down); for pull down of Pin1 from lysate (FIG. 5A): TNBC MDA-MB-231 lysate, 1 μM
Chain of Pin1 (Q13526 whole entry): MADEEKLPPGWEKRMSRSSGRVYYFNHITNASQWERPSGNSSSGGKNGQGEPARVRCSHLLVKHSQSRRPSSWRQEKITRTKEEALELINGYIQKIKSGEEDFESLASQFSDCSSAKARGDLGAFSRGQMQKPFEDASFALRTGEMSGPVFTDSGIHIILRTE
Procedure: (§1) TNBC-MDA-MB-231 cells were lysed in lysis buffer (50 mM Hepes pH 7.5, 150 mM NaCl, 1 mM ethylenediaminetetraacetic acid (EDTA), 10% v/v glycerol, 0.5% v/v NP-40, protease inhibitors (Roche)). After clarifying by centrifugation (14,000 rpm for 15 min at 4° C.), lysates were incubated with the indicated concentrations of candidate compound for 1 hour at 4° C. (500 μg of protein per sample, as determined by BCA). Lysates were then incubated with streptavidin agarose resin (30 μL of 1:1 beads: lysis buffer slurry) (Thermo Scientific™, cat. #20349) for 2 hours at 4° C. Beads were washed 4 times with 500 μL of washing buffer (50 mM Hepes, pH 7.5, 10 mM NaCl, 1 mM EDTA, 10% glycerol), then pelleted by centrifugation and dried. The beads were then boiled at 95° C. for 5 minutes in 30 μL of 2× LDS+10% β-mercaptoethanol. Lysates were probed for specified proteins by western blotting using the Bolt system (Life Technologies™).
as §1, with “mM EDTA,” for “mM ethylenediaminetetraacetic acid (EDTA),”, “by centrifugation,” for “by centrifugation (14,000 rpm for 15 min at 4° C.),”, “were pre-incubated” for “were incubated”, “of” for “of candidate”, “compound 18 overnight” for “compound for 1 hour”, “BCA). The lysates were then incubated with 1 μM of compound 2c (desthiobiotin probe) for 1 hour at 4° C.” for “BCA).”

Pin1 (GST-Pin1) = Pin1 (GST-Pin1) (Homo sapiens, UniProt Q13526); assay: Fluorescence polarization (FP) assay, binding to Pin1
Chain of Pin1 (GST-Pin1) (Q13526 whole entry): as above

[1] = competition with fluorescein-labeled peptide probe, 12 hours pre-incubation at 4° C., Kenakin Ki equation, read-out: Ki, μM (FP Assay)
[2] = Ki, μM (FP Assay), competition with fluorescein-labeled peptide probe, 12 hours pre-incubation at 4° C., Kenakin Ki equation

| Structure (SMILES) | Ki (Pin1 (GST-Pin1); [1]) | Ki (Pin1 (GST-Pin1); [2]) | also measured |
| --- | --- | --- | --- |
| C[C@H]1NC(=O)N[C@H]1CCCCCC(=O)NCCCC[C@H](NC(=O)[C@H](CCCNC(N)=O)NC(=O)[C@H](Cc1c[nH]c2ccccc12)NC(=O)[C@@H]1CCCCN1C(=O)[C@H](Cc1ccccc1)N(C)C(=O)CCl)C(N)=O [Compound 2c, (S)—N—((S)-1-(((S)-1-(((S)-1-Amino-6-(6-((4S,5R)-5-methyl-2-oxoimidazolidin-4-yl)hexanamido)-1-oxohexan-2-yl)amino)-1-oxo-5-ureidopentan-2-yl)amino)-3-(1H-indol-3-yl)-1-oxopropan-2-yl)-1-(N-(2-chloroacetyl)-N-methyl-L-phenylalanyl)-piperidine-2-carboxamide] (ClAc-[NMeF][Pip]W[Cit]K(X2)-NH2) |  |  | Lysate Target Engagement? (Pin1): Yes-(dtb; Lysate Target Engagement? concentration stated for the engagement or pull down (Pin1): at 0.5 μM; Ki (Pin1 (GST-Pin1); Ki quoted in figure legend, assay not named): 0.015 µM |
| C[C@H](NC(=O)[C@H](C)NC(=O)[C@H](CCCNC(N)=O)NC(=O)[C@H](Cc1c[nH]c2ccccc12)NC(=O)[C@@H]1CCCCN1C(=O)[C@H](CCC(=O)O)NC(=O)CCl)C(=O)N[C@@H](CCCCNC(=O)CCCC[C@H]1SC[C@H]2NC(=O)N[C@H]21)C(N)=O [Compound 2-25, (S)-5-((S)-2-(((2S,5S,8S,11S)-14-Carbamoyl-1-(1H-indol-3-yl)-8,11-dimethyl-3,6,9,12,20-pentaoxo-24-((3aR,4R,6aS)-2-oxohexahydro-1H-thieno[3,4-d]imidazol-4-yl)-5-(3-ureidopropyl)-4,7,10,13,19-pentaazatetracosan-2-yl)carbamoyl)piperidin-1-yl)-4-(2-chloroacetamido)-5-oxopentanoic acid] (ClAc-E[Pip]W[Cit]AAK(Biotinyl(3aR,4R,6aS))-NH2) |  |  | pull down of Pin1 from lysate (FIG. 5A) (Pin1): able to pull down Pin1; also recorded: pulled down Pin1; Lysate Target Engagement? (Pin1): Yes-(Biotin; Lysate Target Engagement? concentration stated for the engagement or pull down (Pin1): at 1 μM; Ki (Pin1 (GST-Pin1); read-out: Ki quoted in figure legend, assay not named): 0.02 µM |
| C[C@H](NC(=O)[C@H](C)NC(=O)[C@H](CCCNC(N)=O)NC(=O)[C@H](Cc1c[nH]c2ccccc12)NC(=O)[C@@H]1CCCCN1C(=O)[C@@H](CCC(=O)O)NC(=O)CCl)C(=O)N[C@@H](CCCCNC(=O)CCCC[C@H]1SC[C@H]2NC(=O)N[C@H]21)C(N)=O [Compound 2-30, (R)-5-((S)-2-(((2S,5S,8S,11S)-14-Carbamoyl-1-(1H-indol-3-yl)-8,11-dimethyl-3,6,9,12,20-pentaoxo-24-((3aR,4R,6aS)-2-oxohexahydro-1H-thieno[3,4-d]imidazol-4-yl)-5-(3-ureidopropyl)-4,7,10,13,19-pentaazatetracosan-2-yl)carbamoyl)piperidin-1-yl)-4-(2-chloroacetamido)-5-oxopentanoic acid] (ClAc-[dE][Pip]W[Cit]AAK(Biotinyl(3aR,4R,6aS))-NH2) | 1.6 µM |  | pull down of Pin1 from lysate (FIG. 5A) (Pin1): unable to pull down Pin1; also recorded: did not |
| COC(=O)CC[C@H](NC(=O)CCl)C(=O)N1CCCC[C@H]1C(=O)N[C@@H](Cc1c[nH]c2ccccc12)C(=O)N[C@@H](Cc1ccc(O)cc1)C(N)=O [Compound 2-22, Methyl (S)-5-((S)-2-(((S)-1-(((S)-1-Amino-3-(4-hydroxyphenyl)-1-oxopropan-2-yl)amino)-3-(1H-indol-3-yl)-1-oxopropan-2-yl)carbamoyl)piperidin-1-yl)-4-(2-chloroacetamido)-5-oxopentanoate] (ClAc-E(OMe)[Pip]WY-NH2) | 0.154 µM |  | Lysate Target Engagement? (Pin1): Yes-partial; Lysate Target Engagement? concentration stated for the engagement or pull down (Pin1): at 10 μM |
| COC(=O)CC[C@H](NC(=O)CCl)C(=O)N1CCCC[C@H]1C(=O)N[C@@H](Cc1csc2ccccc12)C(=O)N[C@@H](CCCNC(N)=O)C(=O)NCc1ccc(C)cc1 [Compound 11-21, Methyl (S)-5-((S)-2-(((S)-3-(benzo[&]thiophen-3-yl)-1-(((S)-1-((4-methylbenzyl)amino)-1-oxo-5-ureidopentan-2-yl)amino)-1-oxopropan-2-yl)carbamoyl)piperidin-1-yl)-4-(2-chloroacetamido)-5-oxopentanoate] (ClAc-E(OMe)[Pip][Bta][Cit]-{NH(4-Me-benzyl)}) |  | 0.015 µM |  |
| COC(=O)CC[C@H](NC(=O)CCl)C(=O)N1CCCC[C@H]1C(=O)N[C@@H](Cc1c[nH]c2ccccc12)C(=O)N[C@@H](CCCNC(N)=O)C(=O)N(C)c1ccccc1 [Compound 11-15, Methyl (S)-5-((S)-2-(((S)-3-(1H-indol-3-yl)-1-(((S)-1-(methyl(phenyl)amino)-1-oxo-5-ureidopentan-2-yl)amino)-1-oxopropan-2-yl)carbamoyl)piperidin-1-yl)-4-(2-chloroacetamido)-5-oxopentanoate] (ClAc-E(OMe)[Pip]W[Cit]-X4) |  | 0.15 µM |  |
| C=CC(=O)N[C@@H](CC(=O)O)C(=O)N1CCCC[C@H]1C(=O)N[C@@H](Cc1ccc2ccccc2c1)C(=O)N[C@@H](CCC(N)=O)C(N)=O [Compound 2-35, (S)-3-Acrylamido-4-((S)-2-(((S)-1-(((S)-1,5-diamino-1,5-dioxopentan-2-yl)amino)-3-(naphthalen-2-yl)-1-oxopropan-2-yl)carbamoyl)piperidin-1-yl)-4-oxobutanoic acid] (Acryloyl-D[Pip][2Nal]Q-NH2) | > 10 µM |  |  |
| COC(=O)CC[C@H](NC(=O)CCl)C(=O)N1CCCC[C@H]1C(=O)N[C@@H](Cc1c[nH]c2ccccc12)C(=O)N[C@@H](Cc1ccc(O)cc1)C(=O)NCc1ccc(C)cc1 (single isomer, unassigned) [Compound 11-26] | > 10 µM |  |  |
| C[C@H]1NC(=O)N[C@H]1CCCCCC(=O)NCCCC[C@H](NC(=O)[C@H](CCCNC(N)=O)NC(=O)[C@H](Cc1c[nH]c2ccccc12)NC(=O)[C@@H]1CCCCN1C(=O)[C@H](CCC(=O)O)NC(=O)CCl)C(N)=O [Compound 2c-2, (S)-5-((S)-2-(((S)-1-(((S)-1-(((S)-1-Amino-6-(6-((4S,5R)-5-methyl-2-oxoimidazolidin-4-yl)hexanamido)-1-oxohexan-2-yl)amino)-1-oxo-5-ureidopentan-2-yl)amino)-3-(1H-indol-3-yl)-1-oxopropan-2-yl)carbamoyl)piperidin-1-yl)-4-(2-chloroacetamido)-5-oxopentanoic acid] (ClAc-E[Pip]W[Cit]K(X2)-NH2) |  | 0.03 µM |  |
| Cc1ccc(CNC(=O)[C@H](CCCNC(N)=O)NC(=O)[C@H](Cc2c[nH]c3ccccc23)NC(=O)[C@@H]2CCCCN2C(=O)[C@H](Cc2ccccc2)NC(=O)CF)cc1 [Compound 15, (S)—N—((S)-3-(1H-Indol-3-yl)-1-(((S)-1-((4-methylbenzyl)amino)-1-oxo-5-ureidopentan-2-yl)amino)-1-oxopropan-2-yl)-1-((2-fluoroacetyl)-L-phenylalanyl)piperidine-2-carboxamide] (Fluoroacetyl-F[Pip]W[Cit]-{NH(4-Me-benzyl)}) |  | > 10 µM |  |
| COC(=O)CC[C@H](NC(=O)CCl)C(=O)N1CCCC[C@H]1C(=O)N[C@@H](Cc1c[nH]c2ccccc12)C(=O)N[C@@H](CCCNC(N)=O)C(=O)Nc1ccc2ccccc2c1 [Compound 11-8, Methyl (S)-5-((S)-2-(((S)-3-(1H-indol-3-yl)-1-(((S)-1-(naphthalen-2-ylamino)-1-oxo-5-ureidopentan-2-yl)amino)-1-oxopropan-2-yl)carbamoyl)piperidin-1-yl)-4-(2-chloroacetamido)-5-oxopentanoate] (ClAc-E(OMe)[Pip]W[Cit]-βNA) |  | 0.15 µM |  |
| C=CS(=O)(=O)N[C@@H](Cc1ccccc1)C(=O)N1CCCC[C@H]1C(=O)N[C@@H](Cc1c[nH]c2ccccc12)C(=O)N[C@@H](CCCNC(N)=O)C(=O)NCc1ccc(C)cc1 [Compound 14, (S)—N—((S)-3-(1H-indol-3-yl)-1-(((S)-1-((4-methylbenzyl)amino)-1-oxo-5-ureidopentan-2-yl)amino)-1-oxopropan-2-yl)-1-((vinylsulfonyl)-L-phenylalanyl)piperidine-2-carboxamide] (X3-F[Pip]W[Cit]-{NH(4-Me-benzyl)}) | 0.143 µM |  |  |
| COC(=O)CC[C@H](NC(=O)CCl)C(=O)N1CCCC[C@H]1C(=O)N[C@@H](Cc1c[nH]c2ccccc12)C(=O)N[C@@H](CCCNC(N)=O)C(N)=O [Compound 2, Methyl (S)-5-((S)-2-(((S)-1-(((S)-1-amino-1-oxo-5-ureidopentan-2-yl)amino)-3-(1H-indol-3-yl)-1-oxopropan-2-yl)carbamoyl)piperidin-1-yl)-4-(2-chloroacetamido)-5-oxopentanoate] (ClAc-E(OMe)[Pip]W[Cit]-NH2) | 0.074 µM |  |  |
